Data from US9332753B2, “Plant volatiles based on R-curcumene” (Keygene N.V., priority 2009, dated 2016).
“Also recorded” adds a separate entry of the source.

Assays:
B. tabaci [1] = assay: Correlation of identified headspace volatiles with whitefly repellence ranking (stepwise linear regression, MANOVA); parameters: species or system Bemisia tabaci biotype Q; conditions: for Effect (semiochemical associated to B. tabaci repellence or attraction): first Table 5; for association (B. tabaci repellence or attraction): second Table 5; for Effect on insects: volatile related to whitefly repellence or attraction (Table 1)
Text: In a large experiment (see Example 2), the headspace of 16 wild tomato accessions and 5 cultivated tomato lines were sampled and analyzed (6 repeats). In total 51 compounds were identified to be present in the captured headspace. Furthermore, the level of repellency/attraction of each of the 21 tomato accessions was established in free choice bioassays with B. tabaci (biotype Q), using a ranking scale of 1-7 (1=highest repellency to 7=lowest repellency). Next, the identified volatile compounds were correlated to the repellency/attraction score of each tomato accession through a linear regression analysis.
The headspace of 16 wild tomatoes and 5 cultivated tomatoes (Table 4) was collected. Undisturbed 3-weeks old tomato plants were transferred to 40-L desiccators. The headspace was sampled during 24 h including a 16 h light period, by trapping of the volatile components as described above. […] Each accession was sampled 6 times.
In a statistical analysis the correlation between the identified components of the tomato headspace and the ranking of whitefly repellence measured in the bioassays was made. Using two approaches, a stepwise-linear regression analysis and a MANOVA, 8 volatiles were identified to be correlated to whitefly repellence, whereas 24 other volatile compounds were eliminated as non-relevant for repellency or attraction.

B. tabaci [2] = assay: Free choice bioassay with pure volatiles or mixtures added to one of four cv Moneymaker plants; assay type: in vivo, Bemisia tabaci biotype Q (Almeria population); conditions: for effect on whitefly behaviour: one of four Moneymaker plants treated; for behavioural effect (significance of effect on B. tabaci behaviour in choice-assays): significance stars, key not given
Text: For bioassays with headspace (total headspace or single compounds) four potted tomato plants (S. esculentum cv Moneymaker) were placed in a square setup at a distance of 50 cm. One hundred and fifty adult whiteflies were released and recorded as described above. To test the effect of selected headspace components on repellence, synthetic standards (FLUKA) were applied to either 10 filter-papers discs (Whatman, 25 mm diameter) or 10 rubber septa (Sigma Aldrich, Z167258). Prior to loading, the septa were placed in CH2Cl2 for 24 h and air-dried for 3 days (Heath et al., 1986). The paper discs or septa containing volatiles were attached to one of the four plants with metal wire. The position of the treated tomato was randomised. Five minutes after placing the volatiles on the plant, whiteflies were released. For each component at least 8 replications were carried out. Treatments were administered in a setup in which compounds were always added to the same plant in comparison to 3 plants with empty carriers. Prior to each assay with volatiles, the experiment was done with the 4 plants in an untreated setup, in the same position to allow comparison in the same background.
Host preference with and without manipulated headspace by B. tabaci was explored in free choice assays. In each setup four cultivated tomatoes (cv. Moneymaker) were tested as described earlier. For the bioassays with volatiles rubber septa (Sigma Aldrich Z167258) were extracted with CH2Cl2 for 24 hours and dried to the air for 3 days. The desired blend of volatiles was added to the rubber septa in 100 μl hexane. Bioassays with pure components, or mixtures of pure components were carried out as described above.
To positively confirm the correlation between the 7 candidate components and B. tabaci behaviour, host preference was assayed in bioassays with pure components. The desired (blend of) pure volatile chemicals were added, as described above, to the Moneymaker background on filter paper cards. […] The percentage of whiteflies visiting the treated plant decreased with 44% on average (p<0.001) (FIG. 2a) while the untreated plants harboured increased numbers of B. tabaci. […] To assess whether the sum of these three components would yield a greater effect than p-cymene alone, a mixture of p-cymene: gamma-terpinene: beta-myrcene in the same ratio as found in accession LA2560 (1:12:3) was tested. […] Finally, the sesquiterpenes were tested, tomato-derived 7-epi-zingiberene as well as its oxidation product R-curcumene, and zingiberene and its oxidation product S-crucume.

B. tabaci antennae = assay: Electroantennography (EAG); parameters: species or system Bemisia tabaci
Protocol: Electroantennography (EAG) was employed to confirm the responsiveness of the atennae to 10-3 dilution in paraffin oil (Uvasol, Merck) of the chemicals described. Small pieces of filter paper (2 cm2; Schleicher & Schuell, Dassel, Germany) were soaked with 100 μl of the standard dilution or paraffin oil only (control). The filter paper was inserted into a 10-ml glass syringe (Poulten & Graf GmbH, Wertheim, Germany). A reproducible stimulus was supplied by puffing 5 ml of air over the antenna (Schutz et al., 1999). The EAG response was recorded for each standard dilution. The response to paraffin oil was considered as a negative control and was subtracted from all the reported EAG measurements.

[3] = Conversion on exposure to air; assay type: physicochemical
[4] = test system: adult whiteflies B. tabaci; conditions: cited from earlier work
[5] = test system: pests of cut flowers (e.g. B. tabaci); conditions: fumigant, 10-20 mg/l, after 2-4 hours of exposure; cited from earlier work
[6] = test system: fourth instar larvae of Colorado potato beetle; conditions: cited from earlier work
[7] = n = 5, mean response and scatter, 10^-3 dilution in paraffin oil
[8] = responses of B. tabaci antennae

CC(C)=CCC[C@@H](C)[C@@H]1C=CC(C)=CC1 [7-epi-zingiberene]
correlation with repellence or attraction of tomato accessions (B. tabaci [1]): appear to be responsible for rendering the S. habrochaites (former typicum) more unattractive
Effect (semiochemical associated to B. tabaci repellence or attraction) (B. tabaci [1]): repellence
association (B. tabaci repellence or attraction) (B. tabaci [1]): repellence
Effect on insects (B. tabaci [1]): Repellent
effect on whitefly behaviour (B. tabaci [2]): clear repellent effect; also recorded: very effective in reducing the number of whitefly visitations
antennal response (B. tabaci antennae; [7]): 23 (0-53) μV
antennal response (B. tabaci antennae; [8]): 2.3 mV
stability when exposed to air [3]: rapidly converted to R- and S-curcumene respectively

CCCCCCCCCCCC(C)=O [2-tridecanone]
toxic effect [4]: toxic effect

C=CC(=C)CCC=C(C)C [beta-myrcene]
correlation with repellence or attraction of tomato accessions (B. tabaci [1]): repellent compounds linked to S. pennelli
Effect (semiochemical associated to B. tabaci repellence or attraction) (B. tabaci [1]): repellence
association (B. tabaci repellence or attraction) (B. tabaci [1]): repellence
Effect on insects (B. tabaci [1]): Repellent
effect on whitefly behaviour (B. tabaci [2]): did not influence whitefly behaviour
behavioural effect (significance of effect on B. tabaci behaviour in choice-assays) (B. tabaci [2]): ns
antennal response (B. tabaci antennae; [8]): ns

C=CCc1ccc2c(c1)OCO2 [safrole]
mortality [5]: caused mortality

CC(C)=CCC[C@@H](C)c1ccc(C)cc1 [R-curcumene]
correlation with repellence or attraction of tomato accessions (B. tabaci [1]): appear to be responsible for rendering the S. habrochaites (former typicum) more unattractive
Effect (semiochemical associated to B. tabaci repellence or attraction) (B. tabaci [1]): repellence
association (B. tabaci repellence or attraction) (B. tabaci [1]): repellence
Effect on insects (B. tabaci [1]): Repellent
effect on whitefly behaviour (B. tabaci [2]): clear repellent effect; also recorded: repelled
antennal recognition / sensitivity (B. tabaci antennae; electroantennography): highest sensitivity
antennal response (B. tabaci antennae; [7]): 50 (8-148) μV
antennal response (B. tabaci antennae; [8]): 5.0 mV

CC1=CC2C(CC1)C2(C)C (stereo not shown) [2-carene]
correlation with repellence or attraction of tomato accessions (B. tabaci [1]): significantly correlated to the more attractive cultivated S. lycopersicum plants
Effect (semiochemical associated to B. tabaci repellence or attraction) (B. tabaci [1]): attraction
association (B. tabaci repellence or attraction) (B. tabaci [1]): attraction
Effect on insects (B. tabaci [1]): Attractant
behavioural effect (significance of effect on B. tabaci behaviour in choice-assays) (B. tabaci [2]): ns
antennal response (B. tabaci antennae; [8]): 3.9 mV

CC1=CCC(C(C)C)C=C1 (stereo not drawn) [Alpha-phellandrene]
correlation with repellence or attraction of tomato accessions (B. tabaci [1]): repellent compounds linked to S. pennelli
association (B. tabaci repellence or attraction) (B. tabaci [1]): repellence
Effect on insects (B. tabaci [1]): Repellent
antennal response (B. tabaci antennae; [8]): 2.2 mV

C=C(C)[C@H]1CC=C(C)CC1 [limonene]
correlation with repellence or attraction of tomato accessions (B. tabaci [1]): significantly correlated to the more attractive cultivated S. lycopersicum plants
Effect (semiochemical associated to B. tabaci repellence or attraction) (B. tabaci [1]): attraction
association (B. tabaci repellence or attraction) (B. tabaci [1]): attraction
Effect on insects (B. tabaci [1]): Attractant
behavioural effect (significance of effect on B. tabaci behaviour in choice-assays) (B. tabaci [2]): ns
antennal response (B. tabaci antennae; [8]): 3.5 mV

CCCCCCCCCC(C)=O [2-undecanone]
toxic effect [6]: toxic effect

CC12CCC(CC1)C(C)(C)O2 [Cineole]
mortality [5]: caused mortality

CC1=CC=C(C(C)C)CC1 [Alpha-terpinene]
correlation with repellence or attraction of tomato accessions (B. tabaci [1]): repellent compounds linked to S. pennelli
association (B. tabaci repellence or attraction) (B. tabaci [1]): repellence
Effect on insects (B. tabaci [1]): Repellent
antennal response (B. tabaci antennae; [8]): 4.1 mV

CC1=CCC(C(C)C)=CC1 [gamma-terpinene]
correlation with repellence or attraction of tomato accessions (B. tabaci [1]): repellent compounds linked to S. pennelli
Effect (semiochemical associated to B. tabaci repellence or attraction) (B. tabaci [1]): repellence
association (B. tabaci repellence or attraction) (B. tabaci [1]): repellence
Effect on insects (B. tabaci [1]): Repellent
behavioural effect (significance of effect on B. tabaci behaviour in choice-assays) (B. tabaci [2]): ns
antennal response (B. tabaci antennae; [8]): 1.9 mV

C=C1C=CC(C(C)C)CC1 (stereo not drawn) [beta-phellandrene]
correlation with repellence or attraction of tomato accessions (B. tabaci [1]): significantly correlated to the more attractive cultivated S. lycopersicum plants
Effect (semiochemical associated to B. tabaci repellence or attraction) (B. tabaci [1]): attraction
association (B. tabaci repellence or attraction) (B. tabaci [1]): attraction
Effect on insects (B. tabaci [1]): Attractant
effect on whitefly behaviour (B. tabaci [2]): decreased tomato attractiveness significantly
behavioural effect (significance of effect on B. tabaci behaviour in choice-assays) (B. tabaci [2]): ns
antennal response (B. tabaci antennae; [8]): 2.5 mV

CC(C)=CCC[C@H](C)c1ccc(C)cc1 [S-curcumene]
Effect (semiochemical associated to B. tabaci repellence or attraction) (B. tabaci [1]): repellence
association (B. tabaci repellence or attraction) (B. tabaci [1]): repellence
Effect on insects (B. tabaci [1]): Repellent
effect on whitefly behaviour (B. tabaci [2]): did not appear to repel
antennal response (B. tabaci antennae; [7]): 27 (3-60) μV
antennal response (B. tabaci antennae; [8]): 2.7 mV

Cc1ccc(C(C)C)cc1 [para-cymene]
correlation with repellence or attraction of tomato accessions (B. tabaci [1]): repellent compounds linked to S. pennelli
Effect (semiochemical associated to B. tabaci repellence or attraction) (B. tabaci [1]): repellence
association (B. tabaci repellence or attraction) (B. tabaci [1]): repellence
Effect on insects (B. tabaci [1]): Repellent
decrease of percentage of whiteflies visiting the treated plant (B. tabaci [2]; on average, vs same plant in untreated setup, p-cymene 10 μg, mixture ratio 1:12:3): 44%
antennal response (B. tabaci antennae; [8]): 2.4 mV

CC(C)=CCC[C@H](C)[C@@H]1C=CC(C)=CC1 [zingiberene]
Effect (semiochemical associated to B. tabaci repellence or attraction) (B. tabaci [1]): repellence
association (B. tabaci repellence or attraction) (B. tabaci [1]): repellence
Effect on insects (B. tabaci [1]): Repellent
effect on whitefly behaviour (B. tabaci [2]): did not appear to be repelled
antennal response (B. tabaci antennae; [7]): 21 (5-30) μV
antennal response (B. tabaci antennae; [8]): 2.1 mV
stability when exposed to air [3]: rapidly converted to R- and S-curcumene respectively
